We go through 20 compounds from US20230172206A1 (BASF SE, priority 2020, published 2023).

Experiment [1] relates to Alternaria solani (F129L). Briefly: Micro titer plate test against early blight (ALTESO F129L). The conditions noted are these: 0.016 ppm, 7 days after inoculation, relative to compound-free control (100%). The experiment is classed as cell-based.
For the next experiment, the system named is Cercospora sojina. The experiment is classed as cell-based. The conditions noted are these: 4 ppm, 7 days after inoculation, relative to compound-free control (100%).
Another experiment deals with Alternaria solani (wt). The experiment is classed as cell-based.
In a further experiment the test system is Septoria tritici. Kind of experiment: Micro titer plate test against leaf blotch on wheat (SEPTTR). The experiment is classed as cell-based.
In experiment [2] the test system is Phakopsora pachyrhizi (F129L). Kind of experiment: Protective control of soybean rust on soybeans (PHAKPA P6). The experiment is classed as in vivo.
Experiment [3] relates to Colletotrichum orbiculare. Kind of experiment: Micro titer plate test against anthracnose (COLLLA). The experiment is classed as cell-based. The conditions noted are these: 0.063 ppm, 7 days after inoculation, relative to compound-free control (100%).
In another experiment the test system is Leptosphaeria nodorum. Kind of experiment: Micro titer plate test against wheat leaf spots (LEPTNO). The experiment is classed as cell-based. The conditions noted are these: 0.063 ppm, 7 days after inoculation, relative to compound-free control (100%).
A further experiment deals with Pyrenophora teres (wt). Briefly: Micro titer plate test against net blotch on barley (PYRNTE wt). The experiment is classed as cell-based. The conditions noted are these: 0.25 ppm, 7 days after inoculation, relative to compound-free control (100%).
A further experiment concerns Microdochium nivale. The experiment is classed as cell-based. The conditions noted are these: 0.016 ppm, 7 days after inoculation, relative to compound-free control (100%).
Experiment [4] relates to Phakopsora pachyrhizi (F129L). Kind of experiment: Protective control of soybean rust on soybeans (PHAKPA P2). The experiment is classed as in vivo. The conditions noted are these: for PHAKPA (F129L) Disease level (%) P2 at 4 ppm: protective, inoculation 2 days after spraying, % diseased leaf area.
Experiment [5] relates to Phakopsora pachyrhizi (wt). Briefly: Protective control of soybean rust on detached soybean leaves (PHAKPA P1 DL), Qo inhibitor-sensitive wt isolate. The experiment is classed as in vivo.
For experiment [6], the system named is Phakopsora pachyrhizi (F129L). Kind of experiment: Protective control of soybean rust on detached soybean leaves (PHAKPA P1 DL), F129L isolate. The experiment is classed as in vivo.
Setting [7] is: 0.016 ppm, 7 days after inoculation, relative to compound-free control (100%).
Where [8] appears, read: 0.25 ppm, 7 days after inoculation, relative to compound-free control (100%).

Molecules are shown by their SMILES. Where “and” joins values, the source holds several entries; their conditions need not be identical. Equal entries are not always repeated. Where two headings read alike, the source gives them in different places.

For the compound `CNC(=O)/C(=N/OC)c1cccc(C)c1CO/N=C(\SC)c1cccc(C(F)(F)F)c1`, the “Fungal growth (%) ALTESO F129L” value in experiment [1] was found to be 85%. Also, in the experiment with Cercospora sojina, the “Fungal growth (%) CERCSO” value is given as 66%.

With `CO/N=C(/C(=O)OC)c1cccc(C)c1CO/N=C(\OC)c1cccc(C)c1`, the “Fungal growth (%) ALTESO wt” value in the experiment with Alternaria solani (wt) (setting [7]) is reported as 93%. Besides, the “Fungal growth (%) ALTESO F129L” value in experiment [1] amounted to 81%. In the experiment with Cercospora sojina, the “Fungal growth (%) CERCSO” value was 67%.

On to `CNC(=O)/C(=N/OC)c1cccc(C)c1CO/N=C(\OC)c1cccc(C)c1`, for which the “Fungal growth (%) SEPTTR” value with Septoria tritici (setting [8]) was determined as 100%. In addition, the “Fungal growth (%) ALTESO wt” value in the experiment on Alternaria solani (wt) (setting [7]) was 93%. For the same compound, in experiment [1], the “Fungal growth (%) ALTESO F129L” value is given as 95%.

Regarding `CNC(=O)/C(=N/OC)c1cccc(C)c1CO/N=C(/c1cccc(C)c1)C1CC1`, the “Fungal growth (%) SEPTTR” value in the experiment with Septoria tritici (setting [8]) stood at 87%. Also, the “Fungal growth (%) ALTESO wt” value in the experiment with Alternaria solani (wt) (setting [7]) is reported as 89%. Moreover, in [1], the “Fungal growth (%) ALTESO F129L” value was 93%.

As for `CNC(=O)/C(=N/OC)c1cccc(C)c1CO/N=C(\C)c1cccc(C(F)(F)F)c1` [compound 8], the “Fungal growth (%) SEPTTR” value in the experiment with Septoria tritici worked out at 57%. In addition, the “Fungal growth (%) ALTESO wt” value with Alternaria solani (wt) is reported as 56%. Further, in experiment [1] (listed as Ex. 8), the “Fungal growth (%) ALTESO F129L” value is 55% and 52%.

As to `CO/N=C(/C(=O)OC)c1cccc(C)c1CO/N=C(\C)c1cccc(C(F)(F)F)c1` [compound 9], the “PHAKPA (F129L) Disease level (%) P6 at 16 ppm” value (“PHAKPA … (%) P6 at 16 ppm” for short) in experiment [2] (protective, inoculation six days after spraying, % diseased leaf area, listed as Ex. 9) is 4% and 1%. The “Fungal growth (%) ALTESO wt” value in the experiment on Alternaria solani (wt) (setting [7]) is on record as 73%. Also, in the experiment with Cercospora sojina, the “Fungal growth (%) CERCSO” value is given as 11%.

In the case of `CO/N=C(/C(=O)OC)c1cccc(C)c1CO/N=C(\C)c1cccc(C)c1` [compound 76], the “PHAKPA … (%) P6 at 16 ppm” value in experiment [2] (protective, inoculation six days after spraying, % diseased leaf area, listed as Ex. 76) was 0% and 4%. Besides, the “Fungal growth (%) SEPTTR” value with Septoria tritici (setting [8]) turned out to be 0%. Besides, in the experiment on Alternaria solani (wt) (setting [7]), the “Fungal growth (%) ALTESO wt” value was determined as 55%. The “Fungal growth (%) ALTESO F129L” value in experiment [1] is 37%. Moreover, the “Fungal growth (%) CERCSO” value with Cercospora sojina is given as 28%.

With `CO/N=C(/C(=O)OC)c1cccc(C)c1CO/N=C(\C)c1cccc(Cl)c1` [compound 153], the “PHAKPA … (%) P6 at 16 ppm” value in experiment [2] (protective, inoculation six days after spraying, % diseased leaf area, listed as Ex. 153) is 1% and 5%. The “Fungal growth (%) SEPTTR” value in the experiment with Septoria tritici (setting [8]) came out at 0%. Also, the “Fungal growth (%) COLLLA” value in [3] was 55%. Further, in the experiment with Leptosphaeria nodorum, the “Fungal growth (%) LEPTNO” value is 55%. Moreover, the “Fungal growth (%) ALTESO wt” value in the experiment with Alternaria solani (wt) (setting [7]) turned out to be 71%. In [1], the “Fungal growth (%) ALTESO F129L” value is reported as 68%. For the same compound, in the experiment with Pyrenophora teres (wt), the “Fungal growth (%) PYRNTE wt” value is listed as 31%. Further, the “Fungal growth (%) CERCSO” value with Cercospora sojina stood at 26%. In addition, the “Fungal growth (%) MONGNI” value in the experiment on Microdochium nivale was determined as 75%.

Turning to `CNC(=O)/C(=N/OC)c1cccc(C)c1CO/N=C(\C)c1cccc(Cl)c1` [compound 157], in experiment [4] (listed as Ex. 157), the “PHAKPA (F129L) Disease level (%) P2 at 4 ppm” value was 0% and 1%. Besides, in the experiment with Septoria tritici (setting [8]), the “Fungal growth (%) SEPTTR” value is listed as 20%. Also, the “Fungal growth (%) COLLLA” value in [3] is given as 63%. In addition, the “Fungal growth (%) ALTESO wt” value in the experiment on Alternaria solani (wt) (setting [8]) is 27%. In addition, the “Fungal growth (%) ALTESO F129L” value in experiment [1] was found to be 57%. Besides, in the experiment on Pyrenophora teres (wt), the “Fungal growth (%) PYRNTE wt” value is given as 54%. In addition, the “Fungal growth (%) CERCSO” value in the experiment with Cercospora sojina is recorded as 36%. Also, the “Fungal growth (%) MONGNI” value with Microdochium nivale amounted to 56%.

For the compound `CNC(=O)/C(=N/OC)c1cccc(C)c1CO/N=C(\C)c1ccc(Cl)cc1` [compound 158], the “% PHAKPA (F129L) Disease level P2 at 4 ppm” value in [4] (protective P2, 4 ppm, soybean rust F129L isolate) worked out at 0%. Besides, the “% PHAKPA (F129L) Disease level P2 at 16 ppm” value in experiment [4] (protective P2, 16 ppm, soybean rust F129L isolate) amounted to 0%. Also, in experiment [4], the “PHAKPA (F129L) Disease level (%) P2 at 4 ppm” value is reported as 1%. For the same compound, the “% PHAKPA (F129L) Disease level P6 at 4 ppm” value in experiment [2] (protective P6, 4 ppm, soybean rust F129L isolate) is given as 2%. Moreover, the “% PHAKPA (F129L) Disease level P6 at 16 ppm” value in experiment [2] (protective P6, 16 ppm, soybean rust F129L isolate) is recorded as 0%. Besides, in [2] (protective, inoculation six days after spraying, 4 ppm, % diseased leaf area), the “PHAKPA (F129L) Disease level (%) P6 at 4 ppm” value was determined as 4%. Also, the “PHAKPA P1 DL Disease level (%) Qo I-sensitive wt isolate (0 % F129L)” value in experiment [5] (test concentration 0.3 ppm) is given as 38%; in [5] (test concentration 1 ppm), 7%; in [5] (test concentration 3 ppm), 2%; in experiment [5] (test concentration 10 ppm), 1%; in experiment [5] (test concentration 30 ppm), 4%; in [5] (test concentration 100 ppm), 5%. For the same compound, the “PHAKPA P1 DL Disease level (%) Qo I-sensitive wt isolate (0 % F129L)” value in experiment [5] (test concentration 300 ppm) stood at 4%. For the same compound, the “PHAKPA P1 DL Disease level (%) Qo I-resistant F129L isolate (100 % F129L)” value in experiment [6] (test concentration 0.3 ppm) is 87%; in experiment [6] (test concentration 1 ppm), 57%; in experiment [6] (test concentration 3 ppm), 8%; in [6] (test concentration 10 ppm), 2%; in [6] (test concentration 30 ppm), 4%; in experiment [6] (test concentration 100 ppm), 4%. The “PHAKPA P1 DL Disease level (%) Qo I-resistant F129L isolate (100 % F129L)” value in experiment [6] (test concentration 300 ppm) is recorded as 5%. Moreover, the “Fungal growth (%) ALTESO wt” value with Alternaria solani (wt) (setting [7]) turned out to be 66%. Besides, the “Fungal growth (%) ALTESO F129L” value in experiment [1] worked out at 79%. In addition, in the experiment on Microdochium nivale, the “Fungal growth (%) MONGNI” value stood at 71%.

As for `Cc1cccc(-n2nnn(C)c2=O)c1COc1ccn(-c2ccc(Cl)cc2)n1` [drawing 930], the “Fungal growth (%) ALTESO wt” value in the experiment with Alternaria solani (wt) (setting [7]) is 98%. Also, the “Fungal growth (%) ALTESO F129L” value in experiment [1] worked out at 100%. In the experiment with Microdochium nivale, the “Fungal growth (%) MONGNI” value is 97%.

Regarding `CO/N=C(/C(=O)OC)c1cccc(C)c1CO/N=C(\C)c1cccc(OC(F)(F)F)c1` [drawing 936], the “Fungal growth (%) ALTESO wt” value with Alternaria solani (wt) (setting [7]) came to 94%. Further, in the experiment on Cercospora sojina, the “Fungal growth (%) CERCSO” value is recorded as 33%.

With `CNC(=O)/C(=N/OC)c1cccc(C)c1CO/N=C(\OC)c1cccc(C(F)(F)F)c1` [drawing 948], the “Fungal growth (%) SEPTTR” value in the experiment on Septoria tritici (setting [8]) stood at 77%. Further, the “Fungal growth (%) ALTESO wt” value with Alternaria solani (wt) (setting [7]) was 100%. In experiment [1], the “Fungal growth (%) ALTESO F129L” value turned out to be 87%.

Turning to `CO/N=C(/C(=O)OC)c1cccc(C)c1CO/N=C(\SC)c1cccc(C)c1` [drawing 952], in the experiment with Septoria tritici (setting [8]), the “Fungal growth (%) SEPTTR” value is on record as 61%.

As for `CO/N=C(/C(=O)OC)c1cccc(C)c1CO/N=C(/c1cccc(C)c1)C1CC1` [drawing 953], the “Fungal growth (%) SEPTTR” value with Septoria tritici (setting [8]) was found to be 89%.

As for `CO/N=C(/C(=O)OC)c1cccc(C)c1CO/N=C(\SC)c1cccc(C)c1` [drawing 955], the “Fungal growth (%) ALTESO wt” value in the experiment with Alternaria solani (wt) (setting [7]) is 67%. Further, in experiment [1], the “Fungal growth (%) ALTESO F129L” value came out at 66%. Moreover, the “Fungal growth (%) CERCSO” value with Cercospora sojina is on record as 71%.

`CO/N=C(/C(=O)OC)c1cccc(C)c1CO/N=C(/c1cccc(C)c1)C1CC1` [drawing 957]: in the experiment on Alternaria solani (wt) (setting [7]), the “Fungal growth (%) ALTESO wt” value turned out to be 100%. Further, the “Fungal growth (%) ALTESO F129L” value in experiment [1] stood at 87%. For the same compound, the “Fungal growth (%) CERCSO” value with Cercospora sojina came to 87%.

As for `CO/N=C(/C(=O)OC)c1cccc(C)c1CO/N=C(\SC)c1cccc(Cl)c1` [drawing 962], the “Fungal growth (%) SEPTTR” value in the experiment on Septoria tritici (setting [8]) turned out to be 39%. In addition, the “Fungal growth (%) ALTESO wt” value with Alternaria solani (wt) (setting [7]) amounted to 94%. In experiment [1], the “Fungal growth (%) ALTESO F129L” value is given as 100%.

Turning to `CO/N=C(/C(=O)OC)c1cccc(C)c1CO/N=C(/c1cccc(Cl)c1)C1CC1` [drawing 963], the “Fungal growth (%) SEPTTR” value in the experiment on Septoria tritici (setting [8]) is 39%. Further, the “Fungal growth (%) ALTESO wt” value with Alternaria solani (wt) (setting [7]) is on record as 81%. The “Fungal growth (%) ALTESO F129L” value in [1] stood at 89%.

For the compound `CNC(=O)/C(=N/OC)c1cccc(C)c1CO/N=C(\SC)c1cccc(Cl)c1` [drawing 968], in the experiment with Septoria tritici (setting [8]), the “Fungal growth (%) SEPTTR” value amounted to 59%. In the experiment with Alternaria solani (wt) (setting [8]), the “Fungal growth (%) ALTESO wt” value is 43%. Moreover, the “Fungal growth (%) ALTESO F129L” value in [1] is reported as 90%.
